Experimental data: PubChem BioAssay (NCI)
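Cells were grown in 96-well plates and exposed to each compound for 48 hours at five concentrations; endpoints were interpolated linearly between bracketing concentrations, or set to the highest concentration if not reached. The concentration for full growth arrest is given as TGI.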

What was measured:
Assay in all cases: NCI-60 cell line screen, 48 h
RPMI-8226 leukemia = test system: RPMI-8226 leukemia
UACC-257 melanoma = test system: UACC-257 melanoma
OVCAR-3 ovarian = test system: OVCAR-3 ovarian
HOP-62 NSCLC = test system: HOP-62 NSCLC
MOLT-4 leukemia = test system: MOLT-4 leukemia
SK-MEL-28 melanoma = test system: SK-MEL-28 melanoma
OVCAR-8 ovarian = test system: OVCAR-8 ovarian
ACHN renal = test system: ACHN renal
M14 melanoma = test system: M14 melanoma
TK-10 renal = test system: TK-10 renal
MALME-3M melanoma = test system: MALME-3M melanoma
NCI-H226 lung = test system: NCI-H226 lung
SW-620 colon = test system: SW-620 colon
DMS 273 small cell lung = test system: DMS 273 small cell lung
EKVX NSCLC = test system: EKVX NSCLC
HCT-15 colon = test system: HCT-15 colon
K-562 leukemia = test system: K-562 leukemia
U251 CNS = test system: U251 CNS
SNB-19 CNS = test system: SNB-19 CNS
NCI-H23 lung = test system: NCI-H23 lung
SR leukemia = test system: SR leukemia
UACC-62 melanoma = test system: UACC-62 melanoma
786-0 renal = test system: 786-0 renal
OVCAR-4 ovarian = test system: OVCAR-4 ovarian
RXF 393 renal = test system: RXF 393 renal
SNB-75 CNS = test system: SNB-75 CNS
SF-295 CNS = test system: SF-295 CNS
CCRF-CEM leukemia = test system: CCRF-CEM leukemia
SF-268 CNS = test system: SF-268 CNS
HCC-2998 colon = test system: HCC-2998 colon
XF 498 CNS = test system: XF 498 CNS
SNB-78 CNS = test system: SNB-78 CNS
M19-MEL melanoma = test system: M19-MEL melanoma
COLO 205 colon = test system: COLO 205 colon
KM20L2 colon = test system: KM20L2 colon
DMS 114 small cell lung = test system: DMS 114 small cell lung
IGROV1 ovarian = test system: IGROV1 ovarian
HCT-116 colon = test system: HCT-116 colon
A549 NSCLC = test system: A549 NSCLC
LXFL 529 NSCLC = test system: LXFL 529 NSCLC
HT29 colon = test system: HT29 colon
SK-MEL-2 melanoma = test system: SK-MEL-2 melanoma
UO-31 renal = test system: UO-31 renal
DLD-1 colon = test system: DLD-1 colon
OVCAR-5 ovarian = test system: OVCAR-5 ovarian
SK-OV-3 ovarian = test system: SK-OV-3 ovarian
SK-MEL-5 melanoma = test system: SK-MEL-5 melanoma
NCI-H522 lung = test system: NCI-H522 lung
NCI-H460 lung = test system: NCI-H460 lung
LOX IMVI melanoma = test system: LOX IMVI melanoma
CAKI-1 renal = test system: CAKI-1 renal
HL-60(TB) leukemia = test system: HL-60(TB) leukemia
KM12 colon = test system: KM12 colon
HOP-18 NSCLC = test system: HOP-18 NSCLC
SN12C renal = test system: SN12C renal
RXF-631 renal = test system: RXF-631 renal
SF-539 CNS = test system: SF-539 CNS
HOP-92 NSCLC = test system: HOP-92 NSCLC
A498 renal = test system: A498 renal

## O=C1C(Cl)C(c2ccccc2O)N1n1cnc2ccccc2c1=O (stereo not drawn)
RPMI-8226 leukemia
  TGI: > 100 µM
UACC-257 melanoma
  TGI: > 100 µM
OVCAR-3 ovarian
  TGI: > 100 µM
HOP-62 NSCLC
  TGI: > 100 µM
MOLT-4 leukemia
  TGI: > 100 µM
SK-MEL-28 melanoma
  TGI: > 100 µM
OVCAR-8 ovarian
  TGI: > 100 µM
ACHN renal
  TGI: > 100 µM
M14 melanoma
  TGI: > 100 µM
TK-10 renal
  TGI: > 100 µM
MALME-3M melanoma
  TGI: > 100 µM
NCI-H226 lung
  TGI: > 100 µM
SW-620 colon
  TGI: > 100 µM
DMS 273 small cell lung
  TGI: > 100 µM
EKVX NSCLC
  TGI: 88.5 µM
HCT-15 colon
  TGI: 15.1 µM
K-562 leukemia
  TGI: > 100 µM
U251 CNS
  TGI: > 100 µM
SNB-19 CNS
  TGI: > 100 µM
NCI-H23 lung
  TGI: > 100 µM
SR leukemia
  TGI: > 100 µM
UACC-62 melanoma
  TGI: > 100 µM
786-0 renal
  TGI: > 100 µM
OVCAR-4 ovarian
  TGI: > 100 µM
RXF 393 renal
  TGI: 95.7 µM
SNB-75 CNS
  TGI: 49.6 µM
SF-295 CNS
  TGI: > 100 µM
CCRF-CEM leukemia
  TGI: > 100 µM
SF-268 CNS
  TGI: > 100 µM
HCC-2998 colon
  TGI: > 100 µM
XF 498 CNS
  TGI: 17.9 µM
SNB-78 CNS
  TGI: > 100 µM
M19-MEL melanoma
  TGI: > 100 µM
COLO 205 colon
  TGI: > 100 µM
KM20L2 colon
  TGI: > 100 µM
DMS 114 small cell lung
  TGI: 81.4 µM
IGROV1 ovarian
  TGI: > 100 µM
HCT-116 colon
  TGI: > 100 µM
A549 NSCLC
  TGI: > 100 µM
LXFL 529 NSCLC
  TGI: > 100 µM
HT29 colon
  TGI: > 100 µM
SK-MEL-2 melanoma
  TGI: > 100 µM
UO-31 renal
  TGI: > 100 µM
DLD-1 colon
  TGI: > 100 µM
OVCAR-5 ovarian
  TGI: > 100 µM
SK-OV-3 ovarian
  TGI: > 100 µM
SK-MEL-5 melanoma
  TGI: > 100 µM
NCI-H522 lung
  TGI: 93.8 µM
NCI-H460 lung
  TGI: > 100 µM
LOX IMVI melanoma
  TGI: > 100 µM
CAKI-1 renal
  TGI: > 100 µM
HL-60(TB) leukemia
  TGI: > 100 µM
KM12 colon
  TGI: > 100 µM
HOP-18 NSCLC
  TGI: > 100 µM
SN12C renal
  TGI: 20.4 µM

## Cc1cc(Cl)ccc1NC(=O)C(=O)C(C(=O)c1ccc2ccccc2c1)C1OC(=O)c2ccccc21 (stereo not drawn)
RPMI-8226 leukemia
  TGI: 35.5 µM
UACC-257 melanoma
  TGI: 47.8 µM
OVCAR-3 ovarian
  TGI: 33.3 µM
HOP-62 NSCLC
  TGI: 26.6 µM
RXF-631 renal
  TGI: 31.2 µM
SK-MEL-28 melanoma
  TGI: 54.5 µM
OVCAR-8 ovarian
  TGI: > 100 µM
ACHN renal
  TGI: > 100 µM
M14 melanoma
  TGI: 34.3 µM
MALME-3M melanoma
  TGI: 22.8 µM
NCI-H226 lung
  TGI: 7.69 µM
SW-620 colon
  TGI: 84.6 µM
DMS 273 small cell lung
  TGI: 37.1 µM
EKVX NSCLC
  TGI: 75.9 µM
HCT-15 colon
  TGI: 50.9 µM
K-562 leukemia
  TGI: 33.8 µM
U251 CNS
  TGI: 21.2 µM
SNB-19 CNS
  TGI: 18.3 µM
NCI-H23 lung
  TGI: 26.3 µM
UACC-62 melanoma
  TGI: 24 µM
786-0 renal
  TGI: 22.1 µM
OVCAR-4 ovarian
  TGI: 25.5 µM
RXF 393 renal
  TGI: 9.53 µM
SNB-75 CNS
  TGI: 49.2 µM
CCRF-CEM leukemia
  TGI: 22.2 µM
SF-268 CNS
  TGI: 60.5 µM
HCC-2998 colon
  TGI: 22.2 µM
SNB-78 CNS
  TGI: 49.9 µM
M19-MEL melanoma
  TGI: 29.7 µM
COLO 205 colon
  TGI: 28.5 µM
KM20L2 colon
  TGI: 61.7 µM
DMS 114 small cell lung
  TGI: 23.7 µM
IGROV1 ovarian
  TGI: > 100 µM
HCT-116 colon
  TGI: 21.7 µM
A549 NSCLC
  TGI: 94.5 µM
LXFL 529 NSCLC
  TGI: 19 µM
HT29 colon
  TGI: 72.6 µM
SK-MEL-2 melanoma
  TGI: 27.3 µM
UO-31 renal
  TGI: 31.5 µM
DLD-1 colon
  TGI: 30.4 µM
SF-539 CNS
  TGI: 17.4 µM
OVCAR-5 ovarian
  TGI: 48.4 µM
SK-OV-3 ovarian
  TGI: 49.1 µM
SK-MEL-5 melanoma
  TGI: 26.9 µM
NCI-H522 lung
  TGI: 23.4 µM
NCI-H460 lung
  TGI: 60.8 µM
LOX IMVI melanoma
  TGI: 32.2 µM
HOP-92 NSCLC
  TGI: 34.5 µM
CAKI-1 renal
  TGI: 35.5 µM
KM12 colon
  TGI: 52.3 µM
HOP-18 NSCLC
  TGI: 18.1 µM
SN12C renal
  TGI: 37.4 µM
A498 renal
  TGI: 25.6 µM
